Measurements from ChEMBL document CHEMBL4028803, “Design, synthesis, and structure-activity relationship studies of benzothiazole derivatives as antifungal agents” (Eur J Med Chem, 2016).
Values after ≈ are worked out from the molar mass of the structure shown.

Columns and labels:
Aspergillus fumigatus = experiment: Antifungal activity against Aspergillus fumigatus cgmcc 3.7795 by broth microdilution assay; assay type: functional
Candida albicans [1] = experiment: Antifungal activity against Candida albicans ATCC SC5314 by broth microdilution assay; assay type: functional
Candida albicans [2] = experiment: Antifungal activity against Candida albicans CPCC 400523 by broth microdilution assay; assay type: functional
Cryptococcus neoformans = experiment: Antifungal activity against Cryptococcus neoformans cgmcc 2.3161 by broth microdilution assay; assay type: functional
Candida tropicalis = experiment: Antifungal activity against Candida tropicalis cgmcc 2.3739 by broth microdilution assay; assay type: functional
Candida albicans [3] = experiment: Antifungal activity against fluconazole-resistant Candida albicans 103 by broth microdilution assay; assay type: functional
[4] = target: T1, Lanosterol 14-alpha demethylase (Candida albicans (strain SC5314 / ATCC MYA-2876) (Yeast), UniProt P10613); experiment: Inhibition of CYP51 in Candida albicans ATCC SC5314 assessed as eburicol composition of the total sterol fraction in membrane at 8 ug/ml after 16 hrs by GC-MS analysis relative to control; set-up: scale not given: the % may be the effect or the level left; conditions: candida albicans sc5314, 16 h
[5] = target: T1, Lanosterol 14-alpha demethylase; experiment: Inhibition of CYP51 in Candida albicans ATCC SC5314 assessed as sterol composition in membrane at 8 ug/ml after 16 hrs by GC-MS analysis (reference value: 7.5%); set-up: scale not given: the % may be the effect or the level left; conditions: candida albicans sc5314, 16 h
Candida albicans [6] = experiment: Antifungal activity against fluconazole-resistant Candida albicans 100 by broth microdilution assay; assay type: functional
[7] = target: T1, Lanosterol 14-alpha demethylase; experiment: Inhibition of CYP51 in Candida albicans ATCC SC5314 assessed as lanosterol composition of the total sterol fraction in membrane at 8 ug/ml after 16 hrs by GC-MS analysis (reference value: 2.9%); set-up: scale not given: the % may be the effect or the level left; conditions: candida albicans sc5314, 16 h
[8] = target: T1, Lanosterol 14-alpha demethylase; experiment: Inhibition of CYP51 in Candida albicans ATCC SC5314 assessed as ergosterol composition of the total sterol fraction in membrane at 8 ug/ml after 16 hrs by GC-MS analysis (reference value: 89.6%); set-up: scale not given: the % may be the effect or the level left; conditions: candida albicans sc5314, 16 h
[9] = target: T1, Lanosterol 14-alpha demethylase; experiment: Inhibition of CYP51 in Candida albicans ATCC SC5314 assessed as obtusifoliol composition of the total sterol fraction in membrane at 8 ug/ml after 16 hrs by GC-MS analysis relative to control; set-up: scale not given: the % may be the effect or the level left; conditions: candida albicans sc5314, 16 h

T1 sequence (P10613 whole entry): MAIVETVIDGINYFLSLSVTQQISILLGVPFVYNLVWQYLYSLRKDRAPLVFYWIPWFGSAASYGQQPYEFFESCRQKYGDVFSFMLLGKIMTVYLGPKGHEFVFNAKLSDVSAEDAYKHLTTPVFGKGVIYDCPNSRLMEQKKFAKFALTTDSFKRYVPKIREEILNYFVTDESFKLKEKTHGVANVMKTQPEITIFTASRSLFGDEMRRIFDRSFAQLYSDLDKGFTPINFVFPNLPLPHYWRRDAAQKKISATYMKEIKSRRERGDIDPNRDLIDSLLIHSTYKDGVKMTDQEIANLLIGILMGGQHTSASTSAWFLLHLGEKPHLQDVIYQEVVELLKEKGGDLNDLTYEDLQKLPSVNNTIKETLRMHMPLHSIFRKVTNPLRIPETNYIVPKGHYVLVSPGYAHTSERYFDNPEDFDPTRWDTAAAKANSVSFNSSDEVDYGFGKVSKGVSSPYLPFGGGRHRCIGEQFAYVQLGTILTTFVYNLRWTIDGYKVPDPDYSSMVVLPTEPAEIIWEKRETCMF

Q: For `CCNC(=O)[C@H](Cn1ccnc1)NC(=O)c1nc2ccc(Br)cc2s1`, which MIC (Aspergillus fumigatus) is on record?
A: Its MIC is over 64 µg/mL.

Q: What about the MIC (Candida albicans [1]) of the same compound?
A: Its MIC is over 64 µg/mL.

Q: What about the MIC (Candida albicans [2]) of the same compound?
A: Its MIC is over 64 µg/mL.

Q: And the MIC (Cryptococcus neoformans)?
A: Its MIC is over 64 µg/mL.

Q: And the MIC (Candida tropicalis)?
A: Its MIC is over 64 µg/mL.

Q: For `Cc1ccc2nc(C(=O)N[C@@H](Cn3ccnc3)C(=O)OC(C)C)sc2c1`, which MIC (Aspergillus fumigatus) is on record?
A: Its MIC is over 64 µg/mL.

Q: And the MIC (Candida albicans [1])?
A: Its MIC is 0.5 µg/mL (≈ 1.34 µM).

Q: And the MIC (Candida albicans [2])?
A: The MIC was 4 µg/mL (≈ 10.7 µM).

Q: And the MIC (Cryptococcus neoformans)?
A: The MIC was 2 µg/mL (≈ 5.37 µM).

Q: What about the MIC (Candida tropicalis) of the same compound?
A: The MIC was 1 µg/mL (≈ 2.68 µM).

Q: What does the source list for `Cc1ccc2nc(C(=O)N[C@@H](Cn3ccnc3)C(=O)OCC(C)C)sc2c1`?
A: MIC (Aspergillus fumigatus): > 64 µg/mL; MIC (Candida albicans [1]): 0.25 µg/mL (≈ 0.647 µM); MIC (Candida albicans [2]): 2 µg/mL (≈ 5.17 µM); MIC (Cryptococcus neoformans): 0.5 µg/mL (≈ 1.29 µM); MIC (Candida tropicalis): 0.5 µg/mL (≈ 1.29 µM)

Q: With `CC(C)COC(=O)[C@@H](Cn1ccnc1)NC(=O)c1nc2ccc(Br)cc2s1` as the compound, how does the MIC (Aspergillus fumigatus) read?
A: The MIC was over 64 µg/mL.

Q: And the MIC (Candida albicans [1])?
A: The MIC was 0.125 µg/mL (≈ 0.277 µM).

Q: And the MIC (Candida albicans [2])?
A: Its MIC is 0.25 µg/mL (≈ 0.554 µM).

Q: What about the MIC (Cryptococcus neoformans) of the same compound?
A: The MIC was 0.5 µg/mL (≈ 1.11 µM).

Q: What about the MIC (Candida tropicalis) of the same compound?
A: Its MIC is 0.125 µg/mL (≈ 0.277 µM).

Q: `CCOC(=O)[C@H](Cn1ccnc1)NC(=O)c1nc2ccc(C)cc2s1` was tested. Which MIC (Aspergillus fumigatus) did it give?
A: Its MIC is over 64 µg/mL.

Q: And the MIC (Candida albicans [1])?
A: The MIC was 2 µg/mL (≈ 5.58 µM).

Q: And the MIC (Candida albicans [2])?
A: The MIC was over 64 µg/mL.

Q: What about the MIC (Cryptococcus neoformans) of the same compound?
A: Its MIC is 8 µg/mL (≈ 22.3 µM).

Q: And the MIC (Candida tropicalis)?
A: Its MIC is 4 µg/mL (≈ 11.2 µM).

Q: How did the MIC (Aspergillus fumigatus) turn out when `CC(C)COC(=O)[C@H](Cn1ccnc1)NC(=O)c1nc2ccc(F)cc2s1` was run?
A: Its MIC is over 64 µg/mL.

Q: What about the MIC (Candida albicans [1]) of the same compound?
A: The MIC was 0.5 µg/mL (≈ 1.28 µM).

Q: What about the MIC (Candida albicans [2]) of the same compound?
A: Its MIC is 16 µg/mL (≈ 41 µM).

Q: What about the MIC (Cryptococcus neoformans) of the same compound?
A: Its MIC is 4 µg/mL (≈ 10.2 µM).

Q: And the MIC (Candida tropicalis)?
A: Its MIC is 8 µg/mL (≈ 20.5 µM).

Q: With `CCCOC(=O)[C@H](Cn1ccnc1)NC(=O)c1nc2ccc(C)cc2s1` as the compound, how does the MIC (Aspergillus fumigatus) read?
A: Its MIC is over 64 µg/mL.

Q: And the MIC (Candida albicans [1])?
A: The MIC was 0.5 µg/mL (≈ 1.34 µM).

Q: And the MIC (Candida albicans [2])?
A: Its MIC is 4 µg/mL (≈ 10.7 µM).

Q: What about the MIC (Cryptococcus neoformans) of the same compound?
A: Its MIC is 2 µg/mL (≈ 5.37 µM).

Q: What about the MIC (Candida tropicalis) of the same compound?
A: Its MIC is 0.5 µg/mL (≈ 1.34 µM).

Q: What does the source list for `CC(C)COC(=O)[C@H](Cn1ccnc1)NC(=O)c1nc2c(C(F)(F)F)cccc2s1`?
A: MIC (Aspergillus fumigatus): > 64 µg/mL; MIC (Candida albicans [1]): > 64 µg/mL; MIC (Candida albicans [2]): > 64 µg/mL; MIC (Cryptococcus neoformans): > 64 µg/mL; MIC (Candida tropicalis): > 64 µg/mL

Q: With `CC(C)COC(=O)[C@H](Cn1ccnc1)NC(=O)c1nc2ccc(Cl)cc2s1` as the compound, how does the MIC (Aspergillus fumigatus) read?
A: Its MIC is over 64 µg/mL.

Q: And the MIC (Candida albicans [1])?
A: The MIC was 0.125 µg/mL (≈ 0.307 µM).

Q: And the MIC (Candida albicans [2])?
A: The MIC was 2 µg/mL (≈ 4.92 µM).

Q: What about the MIC (Cryptococcus neoformans) of the same compound?
A: The MIC was 1 µg/mL (≈ 2.46 µM).

Q: And the MIC (Candida tropicalis)?
A: Its MIC is 0.25 µg/mL (≈ 0.614 µM).

Q: What does the source list for `Cc1cccc2sc(C(=O)N[C@@H](Cn3ccnc3)C(=O)OCC(C)C)nc12`?
A: MIC (Aspergillus fumigatus): > 64 µg/mL; MIC (Candida albicans [1]): > 64 µg/mL; MIC (Candida albicans [2]): > 64 µg/mL; MIC (Cryptococcus neoformans): > 64 µg/mL; MIC (Candida tropicalis): > 64 µg/mL

Q: Which results are given for `CCCOC(=O)[C@H](Cn1ccnc1)NC(=O)c1nc2ccc(Cl)cc2s1`?
A: MIC (Aspergillus fumigatus): > 64 µg/mL; MIC (Candida albicans [1]): 0.5 µg/mL (≈ 1.27 µM); MIC (Candida albicans [2]): 2 µg/mL (≈ 5.09 µM); MIC (Cryptococcus neoformans): 2 µg/mL (≈ 5.09 µM); MIC (Candida tropicalis): 1 µg/mL (≈ 2.55 µM)

Q: What does the source list for `CC(C)OC(=O)[C@H](Cn1ccnc1)NC(=O)c1nc2ccc(F)cc2s1`?
A: MIC (Aspergillus fumigatus): > 64 µg/mL; MIC (Candida albicans [1]): 4 µg/mL (≈ 10.6 µM); MIC (Candida albicans [2]): 16 µg/mL (≈ 42.5 µM); MIC (Cryptococcus neoformans): > 64 µg/mL; MIC (Candida tropicalis): 16 µg/mL (≈ 42.5 µM)

Q: How did the MIC (Aspergillus fumigatus) turn out when `CC(C)COC(=O)[C@H](Cn1ccnc1)NC(=O)c1nc2ccc(Br)cc2s1` was run?
A: Its MIC is over 64 µg/mL.

Q: And the MIC (Candida albicans [1])?
A: The MIC was 0.125 µg/mL (≈ 0.277 µM).

Q: What about the MIC (Candida albicans [3]) of the same compound?
A: Its MIC is 8 µg/mL (≈ 17.7 µM).

Q: What about the MIC (Candida albicans [2]) of the same compound?
A: The MIC was 0.25 µg/mL (≈ 0.554 µM).

Q: And the Activity [4]?
A: Its Activity is 63.4%.

Q: And the Activity [5]?
A: Its Activity is 8.6%.

Q: What about the MIC (Candida albicans [6]) of the same compound?
A: The MIC was 16 µg/mL (≈ 35.4 µM).

Q: What about the MIC (Cryptococcus neoformans) of the same compound?
A: Its MIC is 0.5 µg/mL (≈ 1.11 µM).

Q: What about the Activity [7] of the same compound?
A: The Activity was 18.8%.

Q: What about the MIC (Candida tropicalis) of the same compound?
A: The MIC was 0.25 µg/mL (≈ 0.554 µM).

Q: And the Activity [8]?
A: Its Activity is 2.7%.

Q: And the Activity [9]?
A: The Activity was 6.4%.

Q: `COC(=O)[C@H](Cn1ccnc1)NC(=O)c1nc2ccc(C)cc2s1` was tested. Which MIC (Aspergillus fumigatus) did it give?
A: Its MIC is over 64 µg/mL.

Q: And the MIC (Candida albicans [1])?
A: Its MIC is 8 µg/mL (≈ 23.2 µM).

Q: What about the MIC (Candida albicans [2]) of the same compound?
A: The MIC was over 64 µg/mL.

Q: And the MIC (Cryptococcus neoformans)?
A: Its MIC is 8 µg/mL (≈ 23.2 µM).

Q: What about the MIC (Candida tropicalis) of the same compound?
A: Its MIC is 16 µg/mL (≈ 46.5 µM).
